The record followed here is patent publication US20240327353A1.

One assay deals with T1, 5-HT2AR (Homo sapiens, UniProt P28223).
T1 construct: host or cells: HEK293, transient
Description: Radioligand binding (competitive displacement and saturation), cell membranes. To be noted: for Ki: pKi 5-HT2AR. As to the method: (§1) Transfections were performed for 48 hours.

The next assay deals with T2, H1R (Homo sapiens, UniProt P35367).
T2 construct: host or cells: CHO, transient
Described as above. As to the method:
as §1

The target in assay [1] is T3, 5-HT2CR (Homo sapiens, UniProt P28335).
T3 sequence (P28335 33-458): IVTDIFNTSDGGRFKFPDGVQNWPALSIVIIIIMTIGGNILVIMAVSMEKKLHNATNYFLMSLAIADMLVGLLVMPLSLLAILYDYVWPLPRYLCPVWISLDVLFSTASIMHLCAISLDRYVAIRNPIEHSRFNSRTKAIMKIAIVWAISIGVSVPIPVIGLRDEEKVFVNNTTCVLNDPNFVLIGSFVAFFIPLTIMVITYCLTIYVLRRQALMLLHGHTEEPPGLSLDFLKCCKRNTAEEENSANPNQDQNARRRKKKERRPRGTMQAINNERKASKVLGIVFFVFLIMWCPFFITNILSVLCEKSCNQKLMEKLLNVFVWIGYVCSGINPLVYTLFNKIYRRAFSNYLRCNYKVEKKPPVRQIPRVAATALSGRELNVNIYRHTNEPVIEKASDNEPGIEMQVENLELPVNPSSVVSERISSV
Described as above.
Description: (§2) All cells were grown adherently in 10 cm plates in a humidified incubator kept at 37° C. and 5% carbon dioxide. […] Transient transfections were used to express 5-HT2A, 5-HT2C, α1A- or α1B-adrenergic receptors, whereas 5-HT7(a)Rs were stably expressed in HEK293 cells. H1Rs were transiently expressed, and D2Rs were stably expressed in CHO cells.
(§3) Transient transfections were performed on cells in the log growth phase (70-90% confluence). […] Each solution was mixed by inversion before combining, mixed by inversion again, and incubated at 37° C. for 30 minutes. Cells were then washed with 1 mL 1×PBS, followed by the gentle addition of 5 mL of transfection cocktail and 5 mL of cell culture medium with 5% (final) dialyzed FBS. Transfections were performed for 48 hours.
(§4) The affinity of ligands was determined via radioligand binding techniques using human recombinant receptors expressed in mammalian clonal cells.
(§5) Saturation binding experiments were performed on membranes expressing 5-HT2A, 5-HT2B, 5-HT2C, or H1Rs in triplicate across 8 concentrations. Competition binding assays were performed in at least triplicate with approximate Kd concentrations of radioligand. Total and nonspecific binding were determined in octet. […] Serial dilutions of unlabeled compound were made in assay buffer at 2.5× the final concentration using 10 mM DMSO stocks (final [DMSO]≤1%). Assays were terminated using rapid filtration via Whatman GF/B Fired Filters (Brandel Inc., Gaithersburg, MD) soaked in 0.3% (w/v) PEI, using an automated Tomtec Harvester 96 (Hamden, CT).
(§6) Filters were washed with 50 mM Tri-HCl (pH=7.4, 4° C.) before being oven dried and placed into scintillation vials containing 1 mL SX18-4 ScintiVerse^TM BD Cocktail (Fisher Chemical, Fair Lawn, NJ).
(§7) GraphPad Prism (La Jolla, CA) version 9.1.1 was used to analyze all experimental data in this work. To analyze data from saturation binding studies, the radioligand counts per minute (cpm) were normalized to fmol/mg protein bound and then fit the data to a ‘specific binding with hill slope’ model. For competitive radioligand displacement studies, a baseline correction was performed by subtracting the mean nonspecific binding value from the radioligand binding values with and without competitor to obtain specific binding values. Specific binding values were then normalized such that total binding in the absence of competitor represented 100% radioligand binding, and the radioactivity associated with each concentration of competitor was a percentage of total binding. The normalized data was then fit to the ‘one-site Fit Ki’ nonlinear regression model.

Assay [2] has as its target T4, 5-HT2BR (Homo sapiens, UniProt P41595). The assay is described as above.
Description: as §2, §3, §4, §5, §6, §7
Assay [3] has as its target T4, 5-HT2BR. Description: biochemical.
Description: as §2, §3, §4, §5, §6, §7
Assay [4] concerns the target T3, 5-HT2CR. The experiment in a line: biochemical.
Description: as §2, §3, §4, §5, §6, §7
Another assay deals with human wild-type 5-HT2C (Homo sapiens, UniProt P28335). The experiment in a line: IP-One HTRF IP1 accumulation assay.
The target in assay [5] is T4, 5-HT2BR.
Description: as §2, §3, §4, §5, §6, §7
Assay [6] has as its target T3, 5-HT2CR.
Description: as §2, §3, §4, §5, §6, §7
For another assay, the target named is D231F^5.35 5-HT2AR (Homo sapiens, UniProt P28223, D231F). Description: Exploratory saturation radioligand binding at point-mutated 5-HT2AR. To be noted: membranes of transfected HEK293 cells (FIGS. 14A-14D).
D231F^5.35 5-HT2AR, sequence (P28223 whole entry D231F): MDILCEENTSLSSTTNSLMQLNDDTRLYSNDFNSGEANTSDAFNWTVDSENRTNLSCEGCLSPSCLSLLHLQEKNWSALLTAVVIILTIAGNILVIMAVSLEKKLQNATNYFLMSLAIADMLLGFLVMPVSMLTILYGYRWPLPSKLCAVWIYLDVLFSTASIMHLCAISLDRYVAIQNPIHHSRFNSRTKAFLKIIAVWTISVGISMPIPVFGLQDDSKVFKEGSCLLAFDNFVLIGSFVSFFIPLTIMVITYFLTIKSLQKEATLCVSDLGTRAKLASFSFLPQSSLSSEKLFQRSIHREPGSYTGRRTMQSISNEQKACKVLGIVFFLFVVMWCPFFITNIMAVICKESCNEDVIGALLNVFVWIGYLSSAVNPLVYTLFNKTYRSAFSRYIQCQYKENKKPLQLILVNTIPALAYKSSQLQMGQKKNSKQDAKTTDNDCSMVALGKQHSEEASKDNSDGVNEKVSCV
Where [7] appears, read: displacement of [^3H]ketanserin, mean of n independent experiments, ± SD where n ≥ 5.

In general, IC50 refers to the concentration that gives 50% inhibition. Higher therefore signals weaker potency in that assay.

Where two headings read alike, the source gives them in different places.

T4 sequence (P41595 whole entry): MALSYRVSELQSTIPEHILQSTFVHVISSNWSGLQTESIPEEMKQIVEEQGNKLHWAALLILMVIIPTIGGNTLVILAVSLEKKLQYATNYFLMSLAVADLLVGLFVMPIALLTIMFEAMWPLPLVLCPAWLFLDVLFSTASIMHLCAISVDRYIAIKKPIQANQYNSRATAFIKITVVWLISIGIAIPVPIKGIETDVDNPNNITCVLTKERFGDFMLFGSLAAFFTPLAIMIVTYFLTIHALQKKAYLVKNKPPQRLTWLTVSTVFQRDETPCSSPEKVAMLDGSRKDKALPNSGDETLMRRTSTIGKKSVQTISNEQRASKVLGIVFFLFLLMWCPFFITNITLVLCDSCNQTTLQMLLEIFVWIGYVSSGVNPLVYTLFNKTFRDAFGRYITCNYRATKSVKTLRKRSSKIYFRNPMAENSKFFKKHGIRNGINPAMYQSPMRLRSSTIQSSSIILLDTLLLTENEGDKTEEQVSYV
T2 sequence (P35367 whole entry): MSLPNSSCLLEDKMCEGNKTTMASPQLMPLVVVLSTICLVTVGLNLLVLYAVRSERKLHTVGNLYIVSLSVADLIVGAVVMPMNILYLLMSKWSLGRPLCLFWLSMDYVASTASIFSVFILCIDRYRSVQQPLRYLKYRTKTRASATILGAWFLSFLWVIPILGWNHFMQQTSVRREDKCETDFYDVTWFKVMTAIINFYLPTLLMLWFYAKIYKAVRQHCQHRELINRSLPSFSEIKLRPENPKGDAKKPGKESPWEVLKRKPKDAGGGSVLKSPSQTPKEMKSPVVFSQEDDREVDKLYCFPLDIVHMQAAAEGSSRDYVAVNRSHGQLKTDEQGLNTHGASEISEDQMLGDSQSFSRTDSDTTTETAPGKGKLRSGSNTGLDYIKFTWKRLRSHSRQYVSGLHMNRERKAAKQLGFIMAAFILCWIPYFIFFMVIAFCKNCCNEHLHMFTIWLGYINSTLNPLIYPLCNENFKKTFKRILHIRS
T1 sequence (P28223 whole entry): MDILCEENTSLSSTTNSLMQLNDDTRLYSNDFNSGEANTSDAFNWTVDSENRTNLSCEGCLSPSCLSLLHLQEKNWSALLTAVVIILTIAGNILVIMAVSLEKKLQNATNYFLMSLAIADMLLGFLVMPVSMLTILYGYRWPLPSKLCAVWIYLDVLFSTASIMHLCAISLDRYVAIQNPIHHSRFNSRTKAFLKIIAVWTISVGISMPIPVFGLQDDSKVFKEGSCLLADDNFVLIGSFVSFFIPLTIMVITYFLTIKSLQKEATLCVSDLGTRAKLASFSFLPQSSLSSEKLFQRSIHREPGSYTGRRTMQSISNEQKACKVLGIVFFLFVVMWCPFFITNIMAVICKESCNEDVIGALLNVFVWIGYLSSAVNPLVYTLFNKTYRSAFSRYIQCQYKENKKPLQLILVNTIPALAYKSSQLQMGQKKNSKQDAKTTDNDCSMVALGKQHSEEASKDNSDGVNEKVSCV
Description for D231F^5.35 5-HT2AR: as §5
Site directed mutagenesis experiments were performed using 5′-phosphorylated, PAGE-purified custom primers (Life Technologies, Carlsbad CA) and the Quikchange Site-Directed Mutagenesis kit (Agilent, Santa Clara CA) according to the manufacturer's protocol. Reactions were performed in thin-walled PCR tubes using a TOne Gradient 96 Thermal Cycler (Biometra). Following Dpn1 digestion, 2 μL of the PCR product mixture was transformed into 50 μL XL1-Blue competent cells using a 45 second pulse of heat in a 42° C. water bath. The transformed bacteria were then incubated for 1 hour at 37° C. in 0.5 mL of LB broth before being plated on LB-agar plates and incubated overnight at 37° C. […]
Description for human wild-type 5-HT2C: as §3
The pharmacological parameters (e.g., pEC50, pKb, pIC50, Imax) of agonist and antagonist-mediated signal transduction through Gaq-coupled 5-HT2A, 5-HT2B, 5-HT2C, and H1Rs was quantified using the Cisbio (Bedford, MA) IP-One homogeneous time resolved fluorescence (HTRF) immunoassay. The protocol used was consistent with that recommended by the manufacturer for suspension cells in 384-well plate format, with minor modifications. […] Cells (˜2,000 cells/μL, >90% viability, determined by the Corning® Cell Counter) were resuspended in the manufacturer's stimulation buffer (pH=7.4, 37° C.) modified to include 0.1% bovine serum albumin stabilizer (PerkinElmer, part #: CR84-100) and added to a white 384-well OptiPlate (PerkinElmer). Next, stimulation buffer, or 2× compound diluted in stimulation buffer, was added to each well. […] Cells were then incubated in the dark for two hours at 37° C. to ensure equilibrium was obtained. Plates were covered with an aluminum foil seal to prevent evaporation.
Following incubation, the manufacturer's lysis solution (detection buffer) containing inositol monophosphate (IP1) covalently bound to a fluorescent acceptor dye (d2) was added to each well. This process generated a homogenous mixture of cellular and d2-labeled IP1, in a ratio dependent on the concentration- and activity-dependent efficacy of test ligands to modulate cellular IP1 levels. Next, detection buffer containing an anti-IP1 antibody covalently bound to a terbium-cryptate, which serves as a fluorescent acceptor, was added to each well. A one-hour incubation at room temperature was used to allow competitive interactions between cellular and d2-labeled IP1 to equilibrate with anti-IP1-cryptate. Time-resolved fluorescent resonance energy transfer (TR-FRET) was then quantified by a Synergy H1 plate reader equipped with a HTRF filter cube (BioTek).
The functional activity of each compound was determined by incubating cells expressing recombinant receptors with or without a compound of interest in parallel with well containing only buffer and 8 known concentrations of IP1 to generate a standard curve for each experiment. The IP1 concentration in cell-containing wells was then interpolated using nonlinear regression and the ‘log(inhibitor) vs. response (three parameters)’ model in Prism. To control for variation between assays, the resulting concentrations were transformed into molar units and change from basal was calculated using the following equation (Equation 1), where B is the basal concentration of IP, and Y is the concentration of IP generated by cells incubated with compound.
The same model was used to calculate the IC50 of inverse agonists in the absence of A. In contrast, the EC50 was derived from a log([agonist]) vs. response-variable slope (four parameters)’ model to simultaneously obtain K. Each Kb, IC50, and EC50 value was logarithmically transformed into the pKb, pIC50, and pEC50, respectively for ease of presentation and statistical analyses.

`CN(C)[C@@H]1Cc2ccccc2[C@H](c2cccc(-c3ccncc3)c2)C1` (single isomer, unassigned) [(2R,4R)-3e, Cis-4-(3-(pyridin-4-yl)phenyl)-N,N-dimethyl-1,2,3,4-tetrahydronaphthalen-2-amine]: the Ki at 5-HT2AR (setting [7]) was 43.7 nM; on H1R (pKi H1R, displacement of [^3H]mepyramine, mean of n independent experiments, ± SD where n ≥ 5), 22.4 nM. The “pKi 5-HT2CR” value at 5-HT2CR [1] was 5.90^(2) 5.99-5.80 7.37^(3) 7.44-7.27 5.61^(2) 5.69-5.54 6.26^(2) 6.42-6.10.
Compound `CN(C)[C@@H]1Cc2ccccc2[C@H](c2cccc(-c3ccccc3F)c2)C1` (single isomer, unassigned) [(2R,4R)-3g, Cis-4-(2′-fluoro-[1,1′-biphenyl]-3-yl)-N,N-dimethyl-1,2,3,4-tetrahydronaphthalen-2-amine] had a Ki at 5-HT2AR (setting [7]) of 2.04 nM. Besides, the “pKi H1R” value on H1R is 6.93^(2) 7.02-6.84 8.75^(4) 9.1-8.62 ND 6.54^(2) 6.67-6.40. For the same compound, the “pKi 5-HT2BR” value on 5-HT2BR [2] is reported as 7.36^(2) 7.36-7.35 7.09^(3) 7.23-6.90 6.53^(3) 6.71-6.30 6.33^(2) 6.49-6.17.
For `CN(C)[C@@H]1Cc2ccccc2[C@@H](c2cccc(-c3ccncc3)c2)C1` (single isomer, unassigned) [(2R,4S)-2e, Trans-4-(3-(pyridin-4-yl)phenyl)-N,N-dimethyl-1,2,3,4-tetrahydronaphthalen-2-amine], the “pKi 5-HT2AR” value at 5-HT2AR is 6.06^(2) 6.14-5.98 8.13^(3) 8.51-7.82 5.81^(2) 6.01-5.62 7.36^(2) 7.48-7.24. At 5-HT2CR [1], the “pKi 5-HT2CR” value is 5.90^(2) 5.99-5.80 7.37^(3) 7.44-7.27 5.61^(2) 5.69-5.54 6.26^(2) 6.42-6.10.
As for `CN(C)[C@@H]1Cc2ccccc2[C@@H](c2cccc(-c3cccs3)c2)C1` (single isomer, unassigned) [(2S,4R)-2c, Trans-4-(3-(thiophen-2-yl)phenyl)-N,N-dimethyl-1,2,3,4-tetrahydronaphthalen-2-amine], the Ki on 5-HT2AR is 2.14 nM; at H1R (read-out: pKi H1R (converted)) it was 1.15 nM; at 5-HT2BR [3], 79.4 nM; at 5-HT2CR [4] it was 3.8 nM; on 5-HT2CR [1] (pKi at the 5-HT2CR, single experiment excluded from the reported data, excluded: excessive or incomplete radioligand displacement), 0.832 nM. At human wild-type 5-HT2C, this compound showed an IC50 of 251 nM. Also, the “inverse agonist efficacy (Imax) at 5-HT2CRs” value on human wild-type 5-HT2C (below basal) is 58%.
Take `CN(C)[C@@H]1Cc2ccccc2[C@H](c2cccc(Br)c2)C1` (single isomer, unassigned) [(2S,4S)-3a, Cis-4-(3-bromophenyl)-N, N-dimethyl-1,2,3,4-tetrahydronaphthalen-2-amine]: the “pKi 5-HT2AR” value at 5-HT2AR is given as 6.40^(2) 6.41-6.40 7.50^(3) 7.74-7.33. In addition, at 5-HT2BR [3], the Ki is 389 nM. Besides, on 5-HT2CR [1], the “pKi 5-HT2CR” value is given as 6.71^(3) 6.93-6.47 7.24^(4) 7.44-7.06.
On to `CN(C)[C@@H]1Cc2ccccc2[C@H](c2cccc(-c3ccncc3)c2)C1` (single isomer, unassigned) [(2S,4S)-3e, Cis-4-(3-(pyridin-4-yl)phenyl)-N,N-dimethyl-1,2,3,4-tetrahydronaphthalen-2-amine], for which the “pKi 5-HT2AR” value on 5-HT2AR is recorded as 6.06^(2) 6.14-5.98 8.13^(3) 8.51-7.82 5.81^(2) 6.01-5.62 7.36^(2) 7.48-7.24. Also, the “pKi 5-HT2CR” value on 5-HT2CR [1] is given as 5.90^(2) 5.99-5.80 7.37^(3) 7.44-7.27 5.61^(2) 5.69-5.54 6.26^(2) 6.42-6.10.
At 5-HT2AR (setting [7]), `CN(C)[C@@H]1Cc2ccccc2[C@H](c2cccc(-c3ccccc3F)c2)C1` (single isomer, unassigned) [(2S,4S)-3g, Cis-4-(2′-fluoro-[1,1′-biphenyl]-3-yl)-N,N-dimethyl-1,2,3,4-tetrahydronaphthalen-2-amine] showed a Ki of 40.7 nM. Moreover, the “pKi 5-HT2BR” value on 5-HT2BR [2] is reported as 7.36^(2) 7.36-7.35 7.09^(3) 7.23-6.90 6.53^(3) 6.71-6.30 6.33^(2) 6.49-6.17.
With `CN(C)[C@H]1Cc2ccccc2[C@H](c2cccc(-c3cccs3)c2)C1` [(2R,4S)-2c, (2R,4S)-trans-4-(3-(thiophen-2-yl)phenyl)-N,N-dimethyl-1,2,3,4-tetrahydronaphthalen-2-amine], the Ki is 19.5 nM at 5-HT2AR, 214 nM on 5-HT2BR [5] and 33.1 nM on 5-HT2CR [6]. Further, at H1R, the “pKi H1R” value turned out to be 6.90. The “agonist activity at 5-HT2CRs, concentration-response” value at human wild-type 5-HT2C (FIG. 7B) was “no consistent effect on IP1-accumulation”.
As to `CN(C)[C@@H]1Cc2ccccc2[C@H](c2cccc(-c3ccccc3)c2)C1` [(2S,4S)-3f, (2S,4S)-cis-4-([1,1′-biphenyl]-3-yl)-N,N-dimethyl-1,2,3,4-tetrahydronaphthalen-2-amine], the Ki at 5-HT2BR [5] is 407 nM; at 5-HT2CR [6], 151 nM.
For `O=C(CCCN1CCC2(CC1)C(=O)NCN2c1ccccc1)c1ccc(F)cc1` [[^3H]Spiperone], on D231F^5.35 5-HT2AR, the “specific binding to D231F^5.35 5-HT2ARs” value is on record as “no specific binding is detected”.
